Reference: US8466203B2, “Method of stabilizing human eye tissue by reaction with nitrite and related agents such as nitro compounds” (priority 2006, dated 2013)
Several values for one entry are separate records, joined by “and”; a condition that tells them apart may be missing. Equal entries are not always repeated. Where two headings read alike, the source gives them in different places.

Experiments:
[1] = test system: human sclera; experiment: Thermal shrinkage temperature analysis of human scleral strips; conditions: pH 7.4, 37° C., 96 hrs
Description: Thermal shrinkage temperature or denaturation temperature (Ts) is a technique that has been used for decades in studying collagen cross-linking. As collagen fibers are progressively heated, a threshold temperature is reached at which point disruption of hydrogen bonding in the collagen molecule triple helix occurs, resulting in unwinding of the triple helices. The denaturation of tertiary protein structure results in a rapid shrinkage of the tissue of up to 80%. This phenomenon can be expressed in various ways including temperature of onset of tissue shrinkage, temperature at maximal tissue shrinkage, and temperature at 50% of maximal tissue shrinkage, for example. In addition, differential scanning calorimetry (DSC) is related to thermal shrinkage temperature analysis and is widely used to evaluate biomaterial cross-linking. Thermal shrinkage temperature is essentially a simplified version of DSC and can be used effectively to screen the cross-linking efficacy of compounds. For the purposes of this study, the onset of shrinkage is considered the Ts and the temperature at which 50% of maximal shrinkage has occurred is T50. Graphs depicting the relationship between degree of shrinkage and temperature indicate differences in degree of cross-linking between groups. Thus, stabilization of collagen fiber structures through non-enzymatic cross-linking increases Ts and T50. A 5° C. upward shift in Ts for the anterior corneal stroma has been shown for the UVR cross-linking method (Spoerl, E., et al., 2004).
A semi-automated system has been developed which increases the efficiency and accuracy of Ts data collection. This system can perform multiple Ts assays in succession, allowing rapid screening of a number of potential cross-linking agents and conditions. […] Inlet and outlet fittings allow for constant circulation of heated water which is modulated by a digitally controlled water bath equipped with a water pump. The entire box is placed on a digital photo scanner connected to a Windows based computer. Beginning at 50° C. the temperature is raised at a rate of 1° C./min and serial scans are taken at every degree increase in temperature up to 80° C. Control pig corneas shrink at approximately 63° C. and cross-linked tissue at higher temperatures. As the tissue shrinks, the images are captured by the scanner. The image files are later analyzed for 2-dimensional area using NIH Image J software and % shrinkage calculations are made using Microsoft Excel for graphing purposes. This method obviates the need for removal of tissue pieces from the water bath with manual micrometer measurements as described by the UVR group (Spoerl, E., et al., 2004). Thus, the labor involved in acquiring data is lessened and the accuracy using image analysis is improved.
Shrinkage temperature (Ts) of porcine cornea (FIG. 16) and porcine and human sclera (FIGS. 17 and 18) cross-linked with 2-nitroethanol. […] Following reaction, thermal shrinkage temperature analysis was performed (Table 4). Several compounds were studied including NaNO2, 2-nitroethanol, 2-nitro-1-propanol, 3-nitro-2-pentanol, 2-nitrophenol, 2-nitroethane, 2-aminoethanol, isopentyl nitrite, DPTA/NO, DETA/NO, and urea, a nitrous acid trap.

[2] = test system: ARPE-19 cells
Description: A cytotoxicity study was undertaken to obtain an impression of the level of cellular tolerance to these compounds. For pilot experiments ARPE-19 cells were used. This is an immortal human retinal pigment epithelial cell line commonly used for experiments related to macular degeneration. In these pilot studies, the ARPE-19 cells serve as a surrogate for cytotoxicity experiments. Primary cultures of bovine corneal endothelial cells were also used in the cytotoxicity studies described. Bovine corneal cells have more direct relevance for evaluating potential cytotoxic effects during cross-linking of living eye tissue.
ARPE-19 cells were grown to 80% confluence in 96 well tissue culture plates. The cells were then exposed to varying concentrations of NaNO2 and 2-nitroethanol in their culture medium and evaluated for cell death using trypan blue (TB) staining (0.4% for 5 min) after 24 hrs.

[3] = test system: bovine corneal endothelial cells; conditions: 48 hrs exposure

SMILES: O=[N+]([O-])CCO [2-nitroethanol]
- T50 (temperature at 50% of maximal shrinkage) ([1]; 1 mM): 66.3 °C
- T50 Δ (change in 50% shrinkage temperature compared to control) ([1]; 1 mM): 0.3 °C
- Ti (temperature at 1% absolute shrinkage) ([1]; 1 mM): 60.8 °C
- T50 (temperature at 50% of maximal shrinkage) ([1]; 10 mM): 68.2 °C
- T50 Δ (change in 50% shrinkage temperature compared to control) ([1]; 10 mM): 2.2 °C
- Ti (temperature at 1% absolute shrinkage) ([1]; 10 mM): 64.4 °C
- T50 (temperature at 50% of maximal shrinkage) ([1]; 100 mM): 73.5 °C
- T50 Δ (change in 50% shrinkage temperature compared to control) ([1]; 100 mM): 7.5 °C
- Ti (temperature at 1% absolute shrinkage) ([1]; 100 mM): 71.7 °C
- trypan blue (TB) uptake ([2]; 1 mM, 24 hrs): no TB was taken up
- trypan blue (TB) uptake ([2]; 10 mM, 24 hrs): all of the cells took up TB
- cytotoxic threshold ([2]; 24 hrs, trypan blue): > 1 mM and 1 to 10 mM
- highest tolerated level ([2]; ARPE-19): 1 mM
- tolerable level ([2]; ARPE-19): 0.0091%
- Apoptosis (Annexin V) staining ([3]; 0.1 mM): −
- Apoptosis (Annexin V) staining ([3]; 0.5 mM): −
- Apoptosis (Annexin V) staining ([3]; 0.75 mM): −
- Apoptosis (Annexin V) staining ([3]; 1 mM): −
- Apoptosis (Annexin V) staining ([3]; 2 mM): −
- Apoptosis (Annexin V) staining ([3]; 3 mM): +
